According to US20090118288A1, “N-Benzyl-Morpholine Derivatives as Modulators of the Chemokine Receptor” (ASTRAZENECA AB, priority 2005, published 2009):

molecular target: T1, human recombinant CCR3 receptors (Homo sapiens, UniProt P51677); experiment: Compound affinity at human recombinant CCR3 receptors by radioligand competition on CHO-K1 cell membranes; type: binding; conditions: competition of 2 nM [3H]-4-(2,4-dichloro-3-methylphenoxy)-1'-[4-(methylsulfonyl)benzoyl]-1,4'-bipiperidine, 2 h at 37° C., mean of minimum 2 experiments, Cheng-Prussof correction of pIC50
T1 construct: expressed in transfected cells
T1 sequence (P51677 1-355): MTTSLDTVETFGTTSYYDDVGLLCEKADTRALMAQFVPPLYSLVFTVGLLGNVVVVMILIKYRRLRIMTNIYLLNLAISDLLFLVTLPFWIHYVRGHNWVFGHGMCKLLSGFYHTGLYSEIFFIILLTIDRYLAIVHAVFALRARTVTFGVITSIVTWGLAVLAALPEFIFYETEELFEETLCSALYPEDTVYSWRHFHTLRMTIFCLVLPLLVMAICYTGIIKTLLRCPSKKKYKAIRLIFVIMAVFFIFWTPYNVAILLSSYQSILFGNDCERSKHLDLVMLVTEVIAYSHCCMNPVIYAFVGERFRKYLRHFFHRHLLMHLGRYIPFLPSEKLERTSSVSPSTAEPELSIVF
Method: Determination of Compound Affinity at Human Recombinant CCR3 Receptors Assessed by Competition of [^3H]-4-(2,4-dichloro-3-methylphenoxy)-1′-[4-(methylsulfonyl)benzoyl]-1,4′-bipiperidine for CHO-K1 Cell Membranes In Vitro
Membranes, prepared from CHO-K1 cells stably expressing recombinant human CCR3, suspended in assay buffer (50 mM Tris-Base, pH 7.4; containing sodium chloride (100 mM) and magnesium chloride (2 mM)) were incubated in the presence of 2 nM [^3H]-4-(2,4-dichloro-3-methylphenoxy)-1′-[4-(methylsulfonyl)benzoyl]-1,4′-bipiperidine, along with vehicle (1% (v/v) DMSO), 4-(4-chloro-3-methylphenoxy)-1′-[2-(methylsulfonyl)benzoyl]-1,4′-bipiperidine (to define non-specific binding) or test compound for 2 h at 37° C. in round bottomed 96-well plates. The plates were then filtered onto GF/B filter plates, pre-soaked for 1 hour in plate-coating solution (0.3% (w/v) polyethylenimine, 0.2% (w/v) BSA in de-ionised water), using a 96-well plate Tomtec cell harvester. Four washes (250 μL) with wash buffer (50 mM Tris-Base, pH 7.4 containing sodium chloride (500 mM) and magnesium chloride (2 mM)) were performed at 4° C. to remove unbound radioactivity. Plates were dried and MicroScint-O (50 μL) was added to each well. The plates were sealed (TopSeal A) and filter-bound radioactivity was measured with a scintillation counter (TopCount, Packard BioScience) using a 1 minute counting protocol.
Specific binding was determined from values of the control wells minus the values for the NSB wells for each assay plate. pIC50 values were calculated using a four parameter logistic fit (where pIC50 is defined as the negative logarithm of the concentration of compound required for 50% reduction in specific [^3H]-4-(2,4-dichloro-3-methylphenoxy)-1′-[4-(methylsulfonyl)benzoyl]-1,4′-bipiperidine binding). Data were presented as mean pKi values (calculated by applying a Cheng-Prussof correction to pIC50 values) from a minimum of 2 separate experiments.

| Molecule | CCR3 pKi |
| --- | --- |
| 2-Amino-6-({[4-(3,4-dichloro-benzyl)-morpholin-2-ylmethyl]-carbamoyl}-methylsulfanyl)-5-fluoro-nicotinic acid [Example 29A] | 9.4 |

same assay, conditions: competition of 2 nM [3H]-4-(2,4-dichloro-3-methylphenoxy)-1'-[4-(methylsulfonyl)benzoyl]-1,4'-bipiperidine, 2 h at 37° C., mean of minimum 2 experiments, Cheng-Prussof correction of pIC50, read-out: CCR3 pKi (converted)

| Molecule | Ki |
| --- | --- |
| O=C(CSc1ccc(C(=O)O)cc1)NC[C@H]1CN(Cc2ccc(Cl)c(Cl)c2)CCO1 [Example 2, (S)-4-[[4-[(3,4-dichlorophenyl)methyl]morpholin-2-yl]methylcarbamoylmethylsulfanyl]-benzoic acid] | 0.398 nM |
| O=C(CSc1cccc(C(=O)O)c1)NC[C@H]1CN(Cc2ccc(Cl)c(Cl)c2)CCO1 [Example 6, (S)-3-[[4-[(3,4-dichlorophenyl)methyl]morpholin-2-yl]methylcarbamoylmethylsulfanyl]-benzoic acid] | 0.501 nM |
| O=C(CSc1ccc(C(=O)O)cc1C(F)(F)F)NC[C@H]1CN(Cc2ccc(Cl)c(Cl)c2)CCO1 [Example 8A, (S)-4-[[4-[(3,4-dichlorophenyl)methyl]morpholin-2-yl]methylcarbamoylmethylsulfanyl]-3-(trifluoromethyl)benzoic acid] | 0.2 nM |
| O=C(CSc1ncc(C(=O)O)cc1Cl)NC[C@H]1CN(Cc2ccc(Cl)c(Cl)c2)CCO1 [Example 9A, (S)-5-chloro-6-[[4-[(3,4-dichlorophenyl)methyl]morpholin-2-yl]methylcarbamoylmethylsulfanyl]-nicotinic acid] | 0.251 nM |
| Cc1c(CN2CCOC(CNC(=O)CSc3nc(N)c(C(=O)O)cc3F)C2)ccc(Cl)c1Cl (centres unmarked) [Example 10A, 2-Amino-6-({[4-(3,4-dichloro-2-methyl-benzyl)-morpholin-2-ylmethyl]-carbamoyl}-methylsulfanyl)-5-fluoro-nicotinic Acid] | 0.2 nM |
| Cc1cc(CN2CCO[C@@H](CNC(=O)CSc3ccc(C(=O)O)cc3F)C2)ccc1Cl [Example 16A, 4-[[(2S)-4-[(4-chloro-3-methyl-phenyl)methyl]morpholin-2-yl]methylcarbamoylmethylsulfanyl]-3-fluoro-benzoic acid] | 0.251 nM |
| Cc1cc(F)ccc1CN1CCO[C@@H](CNC(=O)CSc2ccc(C(=O)O)cc2F)C1 [Example 31A, 3-Fluoro-4-[[(2S)-4-[(4-fluoro-2-methyl-phenyl)methyl]morpholin-2-yl]methylcarbamoylmethylsulfanyl]benzoic Acid] | 1 nM |
